Here are results for 4 compounds from paper PMC8647500 (Molecular Brain, 2021).

Experiment [1] deals with GRABNE1m. In words: Dual-color time-lapse imaging in HeLa cells co-expressing DA1.2 and NE1m, green channel. In kind it is cell-based. The conditions noted are these: for NE1m fluorescence response to ligand: NE 1 µM then DA 5 µM. As for the experimental part: (§1) Stock solutions for the compounds were dissolved in the appropriate vehicle, and a volume from 0.95 to 1 µl was prepared in each 1.5-ml microcentrifuge tube. Compounds were mixed with 0.5 ml imaging buffer from the well and applied to the same well at each time point during imaging (Additional file 1: Fig. S4b). For temperature equilibration of the imaging buffer, 0.5 ml of the imaging buffer was transferred from the well into an empty 1.5-ml microcentrifuge tube and then applied to the buffer in the same well; this procedure repeated 5 times (Additional file 1: Fig. S4c). The procedure for the compound application in the time-lapse imaging is shown in Additional file 1: Fig. S5. The ‘ligand’ dissolved in the appropriate vehicle was applied at the imaging time point shown by the arrow; the ‘vehicle’ was applied at the same time point.
We used Fiji, a distribution of ImageJ [44], for the preparation of quantification and measurement of all imaging files. Principally, for all images, the background was subtracted, and images were registered by StackReg (http://bigwww.epfl.ch/thevenaz/stackreg/), a Fiji plugin to correct misregistration, if required. Note that the median filter was used for the time-lapse images of the neuron before registration to remove camera noise preventing registration. Then, regions of interests (ROIs) were selected for the first time point in time-lapse imaging or in the images before the compound application, to surround the whole cell body for HeLa cells and a dendrite near the cell body for hippocampal neurons. […] In order to normalize the fluorescence changes with the amount of biosensor expression, ΔF/F0 was calculated using the intensity before the compound application. For the time-lapse experiments, the value used for F0 was the mean intensity before compound application. The image of fluorescence change (ΔF/F0) was represented as the pseudocolor intensity-modulated display mode, where color represents the relative ratio value, whilst the brightness of the color represented the fluorescence intensity of the source images. […]

The subject of experiment [2] is GRABNE1m. Briefly: Dual-color time-lapse imaging in rat primary hippocampal neurons co-expressing DA1.2 and NE1m, green channel. It is filed as cell-based. How it is done:
(§2) Primary cultures of rat hippocampal neurons were prepared similarly to that described previously. Female pregnant Wistar/ST rats (total 8 rats) arrived from Japan SLC on the day of the experiment. A pregnant rat with embryonic rats (embryonic days 19) was killed by CO2 inhalation and then embryos (10 embryos per pregnant rat) were removed and decapitated. […] To dissociate hippocampal neurons, hippocampi were treated with 10 units/ml papain (LS003126, Worthington Biochemical) for 10 min at 37 °C. […] Half of the medium was removed and replaced with fresh medium every 7 days.
(§3) Stock solutions for the compounds were dissolved in the appropriate vehicle, and a volume from 0.95 to 1 µl was prepared in each 1.5-ml microcentrifuge tube. […]
(§4) We used Fiji, a distribution of ImageJ [44], for the preparation of quantification and measurement of all imaging files. […] In order to normalize the fluorescence changes with the amount of biosensor expression, ΔF/F0 was calculated using the intensity before the compound application. […] The image of fluorescence change (ΔF/F0) was represented as the pseudocolor intensity-modulated display mode, where color represents the relative ratio value, whilst the brightness of the color represented the fluorescence intensity of the source images. […]

Experiment [3] deals with T1, R-GenGAR-DA1.2 (Homo sapiens, UniProt P21728). In words: Dual-color time-lapse imaging in HeLa cells co-expressing DA1.2 and NE1m, red channel. It is filed as cell-based. As for the experimental part: as §1, §4
T1 sequence (P21728 with tags, fused parts or gaps): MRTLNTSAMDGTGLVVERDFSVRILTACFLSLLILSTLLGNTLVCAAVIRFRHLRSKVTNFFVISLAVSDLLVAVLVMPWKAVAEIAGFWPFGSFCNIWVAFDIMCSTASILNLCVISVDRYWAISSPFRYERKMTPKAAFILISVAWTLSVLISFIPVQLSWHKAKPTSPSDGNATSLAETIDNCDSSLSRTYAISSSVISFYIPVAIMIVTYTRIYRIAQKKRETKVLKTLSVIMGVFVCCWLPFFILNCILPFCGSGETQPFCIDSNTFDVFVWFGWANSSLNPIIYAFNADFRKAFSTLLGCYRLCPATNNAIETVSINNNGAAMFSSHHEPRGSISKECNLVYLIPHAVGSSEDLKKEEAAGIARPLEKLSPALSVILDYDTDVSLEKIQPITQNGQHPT
T1 sequence (Q9U6Y8 with tags, fused parts or gaps partner): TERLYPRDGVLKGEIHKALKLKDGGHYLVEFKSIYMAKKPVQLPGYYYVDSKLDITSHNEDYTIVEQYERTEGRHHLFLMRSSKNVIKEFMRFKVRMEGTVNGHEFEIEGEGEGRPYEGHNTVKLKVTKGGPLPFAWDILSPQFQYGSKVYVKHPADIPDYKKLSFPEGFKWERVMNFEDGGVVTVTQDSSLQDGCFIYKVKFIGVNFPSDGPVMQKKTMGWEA
The target in experiment [4] is T1, R-GenGAR-DA1.2. In words: Dual-color time-lapse imaging in rat primary hippocampal neurons co-expressing DA1.2 and NE1m, red channel. It is filed as cell-based. As for the experimental part: as §2, §3, §4
In experiment [5] the target is T1, R-GenGAR-DA1.2. The conditions noted are these: rat primary hippocampal neurons.
Experimental: Primary cultures of rat hippocampal neurons were prepared similarly to that described previously [40]. Female pregnant Wistar/ST rats (total 8 rats) arrived from Japan SLC on the day of the experiment. A pregnant rat with embryonic rats (embryonic days 19) was killed by CO2 inhalation and then embryos (10 embryos per pregnant rat) were removed and decapitated. […] To dissociate hippocampal neurons, hippocampi were treated with 10 units/ml papain (LS003126, Worthington Biochemical) for 10 min at 37 °C. […] Half of the medium was removed and replaced with fresh medium every 7 days.
Experiment [6] concerns the target T1, R-GenGAR-DA1.2. The conditions noted are these: HeLa cells, all compounds 10 µM.
Experimental: Stock solutions for the compounds were dissolved in the appropriate vehicle, and a volume from 0.95 to 1 µl was prepared in each 1.5-ml microcentrifuge tube. Compounds were mixed with 0.5 ml imaging buffer from the well and applied to the same well at each time point during imaging (Additional file 1: Fig. S4b). For temperature equilibration of the imaging buffer, 0.5 ml of the imaging buffer was transferred from the well into an empty 1.5-ml microcentrifuge tube and then applied to the buffer in the same well; this procedure repeated 5 times (Additional file 1: Fig. S4c). […] The ‘ligand’ dissolved in the appropriate vehicle was applied at the imaging time point shown by the arrow; the ‘vehicle’ was applied at the same time point.

Structures can show the parent of a compound that is named as a salt.

As for `NCCc1ccc(O)c(O)c1` [DA, Dopamine], the “NE1m fluorescence response to ligand” value in the experiment on GRABNE1m [1] is listed as “not DA”.
On to `NC[C@H](O)c1ccc(O)c(O)c1` [NE, L-noradrenaline bitartrate monohydrate], for which the “NE1m fluorescence response to ligand” value in the experiment with GRABNE1m [1] is “increase in green fluorescence”; in the experiment on GRABNE1m [2] (NE 1 µM) it was “increase in NE1m green fluorescence”. Moreover, the entries for the “DA1.2 fluorescence response to ligand” value at R-GenGAR-DA1.2 [3] (NE 1 µM then DA 5 µM) and at R-GenGAR-DA1.2 [4] (NE 1 µM then DA 5 µM) were “not to NE” and “not NE”, respectively.
Consider `CN1CCc2cc(Cl)c(O)cc2[C@@H](c2ccccc2)C1` [SCH, R( +)-SCH 23390 hydrochloride], for which the “effect of antagonist applied after DA on DA1.2 fluorescence” value on R-GenGAR-DA1.2 [5] (SCH 5 µM after DA 5 µM) is on record as “restored to baseline”. Moreover, the “effect of antagonist pretreatment on response of DA1.2 to DA” value at R-GenGAR-DA1.2 [5] (SCH before DA) is given as “completely suppressed”. Besides, the “effect of antagonist on DA1.2 response to DA” value was “blocked” at R-GenGAR-DA1.2 [3] (SCH 5 µM) and “restored” on R-GenGAR-DA1.2 [4] (SCH 5 µM). The “effect of antagonist on the response of DA1.2 to DA” value at R-GenGAR-DA1.2 [6] was “blocked”.
With `COC(=O)[C@@H]1[C@H]2C[C@H]3c4[nH]c5ccccc5c4CCN3C[C@@H]2CC[C@@H]1O` [YO, yohimbine hydrochloride], the “effect of antagonist on NE1m fluorescence response” value with GRABNE1m [1] (YO 1 µM) is “recovered to its basal level”; in the experiment with GRABNE1m [2] (YO 1 µM), “blocked”.
